In the NIST ThermoML archive (doi:10.1021/je060415l):

Settings: Liquid, expansion method

CO [methanol]
Settings	isothermal compressibility
208.17 K, 390 kPa	7.15e-07 1/kPa
208.17 K, 2110 kPa	6.78e-07 1/kPa
208.17 K, 5020 kPa	6.63e-07 1/kPa
208.17 K, 7970 kPa	6.47e-07 1/kPa
208.17 K, 10910 kPa	6.37e-07 1/kPa
208.17 K, 13880 kPa	6.24e-07 1/kPa
208.17 K, 16980 kPa	6.12e-07 1/kPa
208.17 K, 20090 kPa	6.02e-07 1/kPa
208.17 K, 23230 kPa	5.9e-07 1/kPa
208.17 K, 30160 kPa	5.68e-07 1/kPa
208.17 K, 33540 kPa	5.57e-07 1/kPa
208.17 K, 37190 kPa	5.46e-07 1/kPa
208.17 K, 41120 kPa	5.34e-07 1/kPa
208.17 K, 45130 kPa	5.26e-07 1/kPa
208.17 K, 49210 kPa	5.15e-07 1/kPa
208.17 K, 53370 kPa	5.04e-07 1/kPa
208.17 K, 57610 kPa	4.95e-07 1/kPa
208.17 K, 61920 kPa	4.85e-07 1/kPa
208.17 K, 66300 kPa	4.78e-07 1/kPa
208.17 K, 70740 kPa	4.7e-07 1/kPa
208.17 K, 75250 kPa	4.6e-07 1/kPa
208.17 K, 79850 kPa	4.53e-07 1/kPa
208.17 K, 84300 kPa	4.48e-07 1/kPa
208.17 K, 88600 kPa	4.41e-07 1/kPa
208.17 K, 92960 kPa	4.35e-07 1/kPa
208.17 K, 97910 kPa	4.18e-07 1/kPa
223.17 K, 1060 kPa	7.59e-07 1/kPa
223.17 K, 3160 kPa	7.44e-07 1/kPa
223.17 K, 5540 kPa	7.28e-07 1/kPa
223.17 K, 8010 kPa	7.14e-07 1/kPa
223.17 K, 10640 kPa	7.01e-07 1/kPa
223.17 K, 13500 kPa	6.84e-07 1/kPa
223.17 K, 16660 kPa	6.62e-07 1/kPa
223.17 K, 19820 kPa	6.59e-07 1/kPa
223.17 K, 22850 kPa	6.45e-07 1/kPa
223.17 K, 25930 kPa	6.33e-07 1/kPa
223.17 K, 29040 kPa	6.2e-07 1/kPa
223.17 K, 32210 kPa	6.08e-07 1/kPa
223.17 K, 35450 kPa	5.98e-07 1/kPa
223.17 K, 38770 kPa	5.87e-07 1/kPa
223.17 K, 42230 kPa	5.74e-07 1/kPa
223.17 K, 45780 kPa	5.66e-07 1/kPa
223.17 K, 49400 kPa	5.55e-07 1/kPa
223.17 K, 53080 kPa	5.45e-07 1/kPa
223.17 K, 56960 kPa	5.3e-07 1/kPa
223.17 K, 61040 kPa	5.23e-07 1/kPa
223.17 K, 65060 kPa	5.15e-07 1/kPa
223.17 K, 69050 kPa	5.06e-07 1/kPa
223.17 K, 73000 kPa	4.98e-07 1/kPa
223.17 K, 76980 kPa	4.9e-07 1/kPa
223.17 K, 81110 kPa	4.82e-07 1/kPa
223.17 K, 85330 kPa	4.72e-07 1/kPa
223.17 K, 89630 kPa	4.66e-07 1/kPa
223.17 K, 94200 kPa	4.54e-07 1/kPa
223.17 K, 98850 kPa	4.51e-07 1/kPa
248.19 K, 1680 kPa	8.6e-07 1/kPa
248.19 K, 4590 kPa	8.53e-07 1/kPa
248.19 K, 7250 kPa	8.36e-07 1/kPa
248.19 K, 9880 kPa	8.18e-07 1/kPa
248.19 K, 12580 kPa	8.01e-07 1/kPa
248.19 K, 15470 kPa	7.74e-07 1/kPa
248.19 K, 18450 kPa	7.62e-07 1/kPa
248.19 K, 21360 kPa	7.48e-07 1/kPa
248.19 K, 24330 kPa	7.3e-07 1/kPa
248.19 K, 27310 kPa	7.19e-07 1/kPa
248.19 K, 30180 kPa	7.07e-07 1/kPa
248.19 K, 33000 kPa	6.92e-07 1/kPa
248.19 K, 35670 kPa	6.84e-07 1/kPa
248.19 K, 38600 kPa	6.64e-07 1/kPa
248.19 K, 41780 kPa	6.56e-07 1/kPa
248.19 K, 44760 kPa	6.45e-07 1/kPa
248.19 K, 47880 kPa	6.33e-07 1/kPa
248.19 K, 51230 kPa	6.19e-07 1/kPa
248.19 K, 54640 kPa	6.09e-07 1/kPa
248.19 K, 57930 kPa	5.99e-07 1/kPa
248.19 K, 61270 kPa	5.85e-07 1/kPa
248.19 K, 64800 kPa	5.75e-07 1/kPa
248.19 K, 68310 kPa	5.66e-07 1/kPa
248.19 K, 71740 kPa	5.57e-07 1/kPa
248.19 K, 75070 kPa	5.49e-07 1/kPa
248.19 K, 78410 kPa	5.41e-07 1/kPa
248.19 K, 81890 kPa	5.31e-07 1/kPa
248.19 K, 85380 kPa	5.25e-07 1/kPa
248.19 K, 88990 kPa	5.18e-07 1/kPa
248.19 K, 92540 kPa	5.18e-07 1/kPa
248.19 K, 96400 kPa	5e-07 1/kPa
248.19 K, 100840 kPa	4.9e-07 1/kPa
263.17 K, 1420 kPa	9.64e-07 1/kPa
263.17 K, 3920 kPa	9.42e-07 1/kPa
263.17 K, 6360 kPa	9.2e-07 1/kPa
263.17 K, 8840 kPa	9.02e-07 1/kPa
263.17 K, 11360 kPa	8.82e-07 1/kPa
263.17 K, 13920 kPa	8.62e-07 1/kPa
263.17 K, 16580 kPa	8.42e-07 1/kPa
263.17 K, 19270 kPa	8.26e-07 1/kPa
263.17 K, 22000 kPa	8.07e-07 1/kPa
263.17 K, 24860 kPa	7.88e-07 1/kPa
263.17 K, 27740 kPa	7.73e-07 1/kPa
263.17 K, 30600 kPa	7.56e-07 1/kPa
263.17 K, 33550 kPa	7.41e-07 1/kPa
263.17 K, 36560 kPa	7.26e-07 1/kPa
263.17 K, 39590 kPa	7.11e-07 1/kPa
263.17 K, 42670 kPa	6.97e-07 1/kPa
263.17 K, 45790 kPa	6.84e-07 1/kPa
263.17 K, 48960 kPa	6.72e-07 1/kPa
263.17 K, 52170 kPa	6.58e-07 1/kPa
263.17 K, 55430 kPa	6.46e-07 1/kPa
263.17 K, 58830 kPa	6.32e-07 1/kPa
263.17 K, 62280 kPa	6.21e-07 1/kPa
263.17 K, 65720 kPa	6.12e-07 1/kPa
263.17 K, 69340 kPa	5.97e-07 1/kPa
263.17 K, 73030 kPa	5.88e-07 1/kPa
263.17 K, 76640 kPa	5.78e-07 1/kPa
263.17 K, 80310 kPa	5.68e-07 1/kPa
263.17 K, 84120 kPa	5.57e-07 1/kPa
263.17 K, 88070 kPa	5.47e-07 1/kPa
263.17 K, 92050 kPa	5.52e-07 1/kPa
263.17 K, 95980 kPa	5.33e-07 1/kPa
263.17 K, 100060 kPa	5.22e-07 1/kPa
273.17 K, 1010 kPa	1.05e-06 1/kPa
273.17 K, 3000 kPa	1.02e-06 1/kPa
273.17 K, 5050 kPa	1e-06 1/kPa
273.17 K, 7100 kPa	9.82e-07 1/kPa
273.17 K, 9170 kPa	9.62e-07 1/kPa
273.17 K, 11220 kPa	9.47e-07 1/kPa
273.17 K, 13320 kPa	9.25e-07 1/kPa
273.17 K, 15430 kPa	9.12e-07 1/kPa
273.17 K, 17510 kPa	8.9e-07 1/kPa
273.17 K, 19750 kPa	8.72e-07 1/kPa
273.17 K, 22140 kPa	8.56e-07 1/kPa
273.17 K, 24880 kPa	8.26e-07 1/kPa
273.17 K, 27900 kPa	8.1e-07 1/kPa
273.17 K, 30870 kPa	7.91e-07 1/kPa
273.17 K, 38720 kPa	7.29e-07 1/kPa
273.17 K, 42290 kPa	7.21e-07 1/kPa
273.17 K, 45710 kPa	7.11e-07 1/kPa
273.17 K, 49180 kPa	6.92e-07 1/kPa
273.17 K, 52690 kPa	6.79e-07 1/kPa
273.17 K, 55980 kPa	6.73e-07 1/kPa
273.17 K, 59210 kPa	6.57e-07 1/kPa
273.17 K, 62510 kPa	6.46e-07 1/kPa
273.17 K, 65790 kPa	6.35e-07 1/kPa
273.17 K, 69160 kPa	6.24e-07 1/kPa
273.17 K, 72680 kPa	6.19e-07 1/kPa
273.17 K, 76170 kPa	6.02e-07 1/kPa
273.17 K, 79630 kPa	5.9e-07 1/kPa
273.17 K, 83150 kPa	5.82e-07 1/kPa
273.17 K, 86550 kPa	5.73e-07 1/kPa
273.17 K, 90030 kPa	5.63e-07 1/kPa
273.17 K, 94000 kPa	5.47e-07 1/kPa
273.17 K, 98210 kPa	5.44e-07 1/kPa
298.16 K, 740 kPa	1.27e-06 1/kPa
298.16 K, 2360 kPa	1.22e-06 1/kPa
298.16 K, 4230 kPa	1.19e-06 1/kPa
298.16 K, 6090 kPa	1.17e-06 1/kPa
298.16 K, 7970 kPa	1.14e-06 1/kPa
298.16 K, 9920 kPa	1.12e-06 1/kPa
298.16 K, 11950 kPa	1.09e-06 1/kPa
298.16 K, 14020 kPa	1.06e-06 1/kPa
298.16 K, 16080 kPa	1.04e-06 1/kPa
298.16 K, 18190 kPa	1.02e-06 1/kPa
298.16 K, 20320 kPa	1e-06 1/kPa
298.16 K, 22490 kPa	9.82e-07 1/kPa
298.16 K, 24710 kPa	9.59e-07 1/kPa
298.16 K, 26990 kPa	9.37e-07 1/kPa
298.16 K, 29290 kPa	9.23e-07 1/kPa
298.16 K, 31700 kPa	8.99e-07 1/kPa
298.16 K, 34090 kPa	8.85e-07 1/kPa
298.16 K, 36550 kPa	8.65e-07 1/kPa
298.16 K, 39120 kPa	8.47e-07 1/kPa
298.16 K, 41740 kPa	8.3e-07 1/kPa
298.16 K, 44450 kPa	8.14e-07 1/kPa
298.16 K, 47180 kPa	7.96e-07 1/kPa
298.16 K, 49870 kPa	7.83e-07 1/kPa
298.16 K, 52590 kPa	7.68e-07 1/kPa
298.16 K, 55320 kPa	7.57e-07 1/kPa
298.16 K, 58040 kPa	7.43e-07 1/kPa
298.16 K, 60870 kPa	7.28e-07 1/kPa
298.16 K, 63900 kPa	7.14e-07 1/kPa
298.16 K, 66990 kPa	7.03e-07 1/kPa
298.16 K, 69960 kPa	6.89e-07 1/kPa
298.16 K, 73410 kPa	6.65e-07 1/kPa
298.16 K, 77320 kPa	6.55e-07 1/kPa
298.16 K, 80990 kPa	6.49e-07 1/kPa
298.16 K, 84450 kPa	6.37e-07 1/kPa
298.16 K, 87890 kPa	6.41e-07 1/kPa
298.16 K, 91290 kPa	6.17e-07 1/kPa
298.16 K, 94830 kPa	6.05e-07 1/kPa
298.16 K, 98440 kPa	6.02e-07 1/kPa
